Assay results as given in US11584747B2, “Substituted pyridopyrimidinonyl compounds useful as T cell activators” (BRISTOL-MYERS SQUIBB COMPANY, priority 2019, dated 2023).
Like-named read-outs stand apart in the source and are kept apart here.

Assays:
whole blood (pERK) = experiment: pERK Whole Blood assay (Table A; no whole-blood pERK method described); format: cell-based; conditions: normalized
[1] = test system: human venous whole blood (IFN-γ); experiment: Human whole blood IFN-γ assay; format: cell-based; conditions: whole blood, normalized to 3 μM reference compound as 100% activation, read-out: IFN-γ Whole Blood Normalized EC50
Protocol: Human venous whole blood (22.5 μL per well), obtained from healthy donors, was pre-treated with compounds for one hour at 37° C. in a humidified 95% air/5% CO2 incubator. The blood was stimulated with 2.5 μL anti-human CD3 and anti-CD28 mAb at a final concentration of 1 μg/mL each for 24 hours at 37° C. IFN-γ in the supernatants was measured using AlphLISA kit (Cat #AL217).

human DGKα = human DGKα (Homo sapiens (Human), UniProt P23743); experiment: DGKα ADPGLO assay (detergent/lipid micelle substrate); format: biochemical; conditions: truncated DGK alpha; read-out: DGK alpha ADPGLO (Truncated) IC50
Protocol: DGK Alpha ADPGLO (Truncated) IC50 (uM)
The detergent/lipid micelle was prepared by combining 15 g phosphatidylserine (Avanti 840035P) and 1 g diacylglycerol (8008110) and dissolving into 150 mL chloroform in a 2 L round bottom flask. Chloroform was removed under high vacuum by rotary evaporation. […] The lipid/detergent solution was split into 5 mL aliquots and stored at −80° C.

human DGKζ = human DGKζ (Homo sapiens (Human), UniProt Q13574); experiment: DGKζ LIPGLO assay (extruded liposome substrate, ADP-Glo luminescence); format: biochemical; conditions: liposome assay; read-out: DGK zeta LIPGLO IC50
human DGKζ, sequence (Q13574 other isoform, or with tags, fused parts or gaps): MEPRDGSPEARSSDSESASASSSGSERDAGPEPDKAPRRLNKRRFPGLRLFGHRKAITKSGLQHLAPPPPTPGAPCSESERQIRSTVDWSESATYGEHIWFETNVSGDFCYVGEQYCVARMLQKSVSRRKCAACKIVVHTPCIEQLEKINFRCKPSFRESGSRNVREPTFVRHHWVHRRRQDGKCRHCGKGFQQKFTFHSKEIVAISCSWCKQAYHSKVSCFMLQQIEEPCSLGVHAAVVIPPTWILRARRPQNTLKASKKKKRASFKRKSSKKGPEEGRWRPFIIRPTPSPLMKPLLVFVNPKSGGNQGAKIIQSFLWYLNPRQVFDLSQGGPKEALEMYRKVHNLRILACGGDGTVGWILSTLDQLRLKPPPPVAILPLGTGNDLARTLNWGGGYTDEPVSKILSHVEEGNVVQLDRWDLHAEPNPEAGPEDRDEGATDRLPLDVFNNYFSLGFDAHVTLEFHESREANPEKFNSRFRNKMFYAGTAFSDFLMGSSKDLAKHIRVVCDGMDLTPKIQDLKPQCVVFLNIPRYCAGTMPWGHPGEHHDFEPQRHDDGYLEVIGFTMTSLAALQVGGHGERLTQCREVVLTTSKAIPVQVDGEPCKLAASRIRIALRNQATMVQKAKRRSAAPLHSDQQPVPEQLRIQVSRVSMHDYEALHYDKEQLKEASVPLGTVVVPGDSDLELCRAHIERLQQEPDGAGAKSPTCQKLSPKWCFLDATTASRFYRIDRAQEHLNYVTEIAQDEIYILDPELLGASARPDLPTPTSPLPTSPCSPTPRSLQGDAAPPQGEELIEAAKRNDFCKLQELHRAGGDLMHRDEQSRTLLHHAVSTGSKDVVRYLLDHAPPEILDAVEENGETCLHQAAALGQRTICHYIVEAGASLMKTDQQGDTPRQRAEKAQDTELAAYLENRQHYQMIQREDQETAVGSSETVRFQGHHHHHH

human DGKα, sequence (P23743 whole entry, looked up, the tested form may be a part): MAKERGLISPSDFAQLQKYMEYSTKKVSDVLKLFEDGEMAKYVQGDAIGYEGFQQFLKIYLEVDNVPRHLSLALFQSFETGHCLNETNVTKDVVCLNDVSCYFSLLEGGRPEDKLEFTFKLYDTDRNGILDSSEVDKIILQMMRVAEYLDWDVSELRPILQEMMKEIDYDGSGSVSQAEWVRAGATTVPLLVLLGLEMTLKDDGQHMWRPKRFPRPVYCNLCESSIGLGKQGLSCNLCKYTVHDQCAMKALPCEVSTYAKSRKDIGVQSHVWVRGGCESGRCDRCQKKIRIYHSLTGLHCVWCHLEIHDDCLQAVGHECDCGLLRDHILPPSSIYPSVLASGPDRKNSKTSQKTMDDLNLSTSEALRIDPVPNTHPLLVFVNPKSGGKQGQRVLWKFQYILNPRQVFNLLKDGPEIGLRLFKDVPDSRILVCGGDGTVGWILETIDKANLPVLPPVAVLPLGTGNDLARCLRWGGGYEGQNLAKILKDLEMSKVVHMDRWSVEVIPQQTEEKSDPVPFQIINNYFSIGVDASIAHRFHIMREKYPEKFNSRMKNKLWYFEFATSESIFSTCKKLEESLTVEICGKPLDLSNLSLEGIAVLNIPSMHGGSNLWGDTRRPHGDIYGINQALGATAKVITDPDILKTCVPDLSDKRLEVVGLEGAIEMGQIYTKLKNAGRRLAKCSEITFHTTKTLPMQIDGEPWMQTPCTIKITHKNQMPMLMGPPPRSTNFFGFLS

## CC[C@H]1CN(C(c2ccc(F)cc2)c2nc(C3CC3)no2)[C@H](CC)CN1c1nc(=O)n(C)c2ccc(C#N)nc12 (single isomer, unassigned) [Example 111]
Whole blood (pERK)
  IC50: 90 nM
[1]
  EC50: 21 nM

## CC[C@@H]1CN(c2nc(=O)n(C)c3ccc(C#N)nc23)[C@@H](C)CN1C(c1ccc(Cl)cc1)c1ccccn1 (single isomer, unassigned) [Example 96]
Whole blood (pERK)
  IC50: 200 nM
Human DGKα
  IC50: 96 nM
[1]
  EC50: 57 nM

## CC[C@@H]1CN(c2nc(=O)n(C)c3ccc(C#N)nc23)[C@@H](C)CN1C(c1ccc(F)cc1)c1ccc(C(F)(F)F)cn1 (single isomer, unassigned) [Example 47]
Whole blood (pERK)
  IC50: 20 nM
[1]; Homo sapiens
  EC50: 32 nM

## CCC(c1ccc(OC2CC2)cc1)N1C[C@H](CC)N(c2nc(=O)n(C)c3ccc(C#N)nc23)C[C@H]1CC (stereo partly drawn) [Example 255, 4-((2S,5R)-4-(1-(4-cyclopropoxyphenyl)propyl)-2,5-diethylpiperazin-1-yl)-1-methyl-2-oxo-1,2-dihydropyrido[3,2-d]pyrimidine-6-carbonitrile]
Whole blood (pERK)
  IC50: 540 nM
Human DGKζ
  IC50: 120 nM
Human DGKα
  IC50: 58 nM

## CC[C@H]1CN(C(C)c2ccc(CN3C[C@@H](C)O[C@@H](C)C3)cc2)[C@H](CC)CN1c1nc(=O)n(C)c2ccc(C#N)nc12 (stereo partly drawn) [Example 291, 4-((2S,5R)-4-(1-(4-(((2S,6R)-2,6-dimethylmorpholino)methyl)phenyl)ethyl)-2,5-diethylpiperazin-1-yl)-1-methyl-2-oxo-1,2-dihydropyrido[3,2-d]pyrimidine-6-carbonitrile]
Whole blood (pERK)
  IC50: 390 nM
Human DGKζ
  IC50: 430 nM
Human DGKα
  IC50: 110 nM

## CC[C@H]1CN(C(C)c2ccc(CN3C[C@@H](C)O[C@@H](C)C3)cc2)[C@H](CC)CN1c1nc(=O)n(C)c2ccc(C#N)nc12 (stereo partly drawn) [Example 292, 4-((2S,5R)-4-(1-(4-(((2S,6R)-2,6-dimethylmorpholino)methyl)phenyl)ethyl)-2,5-diethylpiperazin-1-yl)-1-methyl-2-oxo-1,2-dihydropyrido[3,2-d]pyrimidine-6-carbonitrile]
Whole blood (pERK)
  IC50: 1100 nM
Human DGKζ
  IC50: 1010 nM
Human DGKα
  IC50: 210 nM

## CC[C@@H]1CN(c2nc(=O)n(C)c3ccc(C#N)nc23)[C@@H](C)CN1C(c1ccc(Cl)cc1)c1ccccn1 (single isomer, unassigned) [Example 95]
Whole blood (pERK)
  IC50: 10500 nM
[1]
  EC50: 370 nM

## CCC(c1ccc(OC2CC2)cc1)N1C[C@H](CC)N(c2nc(=O)n(C)c3ccc(C#N)nc23)C[C@H]1CC (stereo partly drawn) [Example 256, 4-((2S,5R)-4-(1-(4-cyclopropoxyphenyl)propyl)-2,5-diethylpiperazin-1-yl)-1-methyl-2-oxo-1,2-dihydropyrido[3,2-d]pyrimidine-6-carbonitrile]
Whole blood (pERK)
  IC50: 290 nM
Human DGKζ
  IC50: 2940 nM
Human DGKα
  IC50: 1510 nM

## CC[C@H]1CN(C(C)c2cccc(OC(F)(F)F)n2)[C@H](CC)CN1c1nc(=O)n(C)c2ccc(C#N)nc12 (stereo partly drawn) [Example 246, 4-((2S,5R)-2,5-diethyl-4-(1-(6-(trifluoromethoxy)pyridin-2-yl)ethyl)piperazin-1-yl)-1-methyl-2-oxo-1,2-dihydropyrido[3,2-d]pyrimidine-6-carbonitrile]
Whole blood (pERK)
  IC50: 440 nM
Human DGKζ
  IC50: 5850 nM
Human DGKα
  IC50: 4670 nM

## CC[C@H]1CN(C(C)c2ccc(CN3CC4(COC4)C3)cc2)[C@H](CC)CN1c1nc(=O)n(C)c2ccc(C#N)nc12 (stereo partly drawn) [Example 280, 4-((2S,5R)-4-(1-(4-((2-oxa-6-azaspiro[3.3]heptan-6-yl)methyl)phenyl)ethyl)-2,5-diethylpiperazin-1-yl)-1-methyl-2-oxo-1,2-dihydropyrido[3,2-d]pyrimidine-6-carbonitrile]
Whole blood (pERK)
  IC50: 150 nM
Human DGKζ
  IC50: 125000 nM
Human DGKα
  IC50: 42700 nM

## CC[C@@H]1CN(c2nc(=O)n(C)c3ccc(C#N)nc23)[C@@H](C)CN1C(C)c1ccc(C(F)(F)F)cc1 (single isomer, unassigned) [Example 8]
Whole blood (pERK)
  IC50: 180 nM
Human DGKα
  IC50: 140 nM

## CCC(c1ccc(C(C)(C)C#N)cc1)N1C[C@H](CC)N(c2nc(=O)n(C)c3ccc(C#N)nc23)C[C@H]1CC (stereo partly drawn) [Example 251, 4-((2S,5R)-4-(1-(4-(2-cyanopropan-2-yl)phenyl)propyl)-2,5-diethylpiperazin-1-yl)-1-methyl-2-oxo-1,2-dihydropyrido[3,2-d]pyrimidine-6-carbonitrile]
Whole blood (pERK)
  IC50: 1580 nM
Human DGKζ
  IC50: 18 nM
Human DGKα
  IC50: 34 nM

## CC[C@H]1CN(C(c2ccc(F)cc2)c2nc(C3CC3)no2)[C@H](CC)CN1c1nc(=O)n(C)c2ccc(C#N)nc12 (single isomer, unassigned) [Example 110]
Whole blood (pERK)
  IC50: 15 nM
[1]
  EC50: 9 nM

## CC[C@H]1CN(C(C)c2ccc(C(F)(F)F)cc2N2CCOCC2)[C@H](CC)CN1c1nc(=O)n(C)c2ccc(C#N)nc12 (stereo partly drawn) [Example 194, 4-((2S,5R)-2,5-diethyl-4-(1-(2-morpholino-4-(trifluoromethyl)phenyl)ethyl)piperazin-1-yl)-1-methyl-2-oxo-1,2-dihydropyrido[3,2-d]pyrimidine-6-carbonitrile]
Whole blood (pERK)
  IC50: 270 nM
Human DGKζ
  IC50: 5250 nM

## CCC(c1ccc(C2CC2)cc1F)N1C[C@H](C)N(c2nc(=O)n(C)c3ccc(C#N)nc23)C[C@H]1CC (stereo partly drawn) [Example 302, 4-((2S,5R)-4-(1-(4-cyclopropyl-2-fluorophenyl)propyl)-5-ethyl-2-methylpiperazin-1-yl)-1-methyl-2-oxo-1,2-dihydropyrido[3,2-d]pyrimidine-6-carbonitrile]
Whole blood (pERK)
  IC50: 34 nM
Human DGKζ
  IC50: 43 nM
Human DGKα
  IC50: 9 nM

## C[C@@H]1CN(c2nc(=O)n(C)c3ccc(C#N)nc23)[C@@H](C)CN1C(c1ccc(F)cc1)c1ccc(C(F)(F)F)cn1 (single isomer, unassigned) [Example 127]
Whole blood (pERK)
  IC50: 240 nM
[1]; Homo sapiens
  EC50: 410 nM

## CCC(c1ccc(C(F)(F)F)cc1)N1C[C@H](CC)N(c2nc(=O)n(C)c3ccc(C#N)nc23)C[C@H]1CC (single isomer, unassigned) [Example 6]
Whole blood (pERK)
  IC50: 6980 nM
Human DGKα
  IC50: 58 nM

## CC[C@H]1CN(C(c2ccc(OC)cc2)C(C)C)[C@H](CC)CN1c1nc(=O)n(C)c2ccc(C#N)nc12 (stereo partly drawn) [Example 250, 4-((2S,5R)-2,5-diethyl-4-(1-(4-methoxyphenyl)-2-methylpropyl)piperazin-1-yl)-1-methyl-2-oxo-1,2-dihydropyrido[3,2-d]pyrimidine-6-carbonitrile]
Whole blood (pERK)
  IC50: 1800 nM
Human DGKζ
  IC50: 1150 nM
Human DGKα
  IC50: 330 nM

## CC[C@H]1CN(C(c2ccc(OC(C)C)cc2)C(C)C)[C@H](CC)CN1c1nc(=O)n(C)c2ccc(C#N)nc12 (stereo partly drawn) [Example 261, 4-((2S,5R)-2,5-diethyl-4-(1-(4-isopropoxyphenyl)-2-methylpropyl)piperazin-1-yl)-1-methyl-2-oxo-1,2-dihydropyrido[3,2-d]pyrimidine-6-carbonitrile]
Whole blood (pERK)
  IC50: 680 nM
Human DGKζ
  IC50: 17 nM
Human DGKα
  IC50: 170 nM

## CC[C@H]1CN(C(C)c2ccc(CN3CC4(COC4)C3)cc2)[C@H](CC)CN1c1nc(=O)n(C)c2ccc(C#N)nc12 (stereo partly drawn) [Example 279, 4-((2S,5R)-4-(1-(4-((2-oxa-6-azaspiro[3.3]heptan-6-yl)methyl)phenyl)ethyl)-2,5-diethylpiperazin-1-yl)-1-methyl-2-oxo-1,2-dihydropyrido[3,2-d]pyrimidine-6-carbonitrile]
Whole blood (pERK)
  IC50: 2920 nM
Human DGKζ
  IC50: 62400 nM
Human DGKα
  IC50: 17000 nM

## CCC(c1ccc(OC(C)C)cc1)N1C[C@H](CC)N(c2nc(=O)n(C)c3ccc(C#N)nc23)C[C@H]1CC (stereo partly drawn) [Example 234, 4-((2S,5R)-2,5-diethyl-4-(1-(4-isopropoxyphenyl)propyl)piperazin-1-yl)-1-methyl-2-oxo-1,2-dihydropyrido[3,2-d] pyrimidine-6-carbonitrile]
Whole blood (pERK)
  IC50: 80 nM
Human DGKζ
  IC50: 59 nM
Human DGKα
  IC50: 36 nM

## CC[C@@H]1CN(c2nc(=O)n(C)c3ccc(C#N)nc23)[C@@H](C)CN1C(c1ccc(F)cc1)c1ccc(C(F)(F)F)cn1 (stereo partly drawn) [Example 46, 4-((2S,5R)-5-Ethyl-4((4-fluorophenyl)(5-(trifluoromethyl)pyridin-2-yl)methyl)-2-methylpiperazin-1-yl)-1-methyl-2-oxo-1,2-dihydropyrido[3,2-d]pyrimidine-6-carbonitrile]
Whole blood (pERK)
  IC50: 43 nM
[1]; Homo sapiens
  EC50: 73 nM

## CCC(c1ccc(C(C)(C)C#N)cc1)N1C[C@H](CC)N(c2nc(=O)n(C)c3ccc(C#N)nc23)C[C@H]1CC (stereo partly drawn) [Example 252, 4-((2S,5R)-4-(1-(4-(2-cyanopropan-2-yl)phenyl)propyl)-2,5-diethylpiperazin-1-yl)-1-methyl-2-oxo-1,2-dihydropyrido[3,2-d]pyrimidine-6-carbonitrile]
Whole blood (pERK)
  IC50: 4280 nM
Human DGKζ
  IC50: 780 nM
Human DGKα
  IC50: 270 nM

## CC[C@H]1CN(C(C)c2ccc(CN3CCC[C@@H](O)C3)cc2)[C@H](CC)CN1c1nc(=O)n(C)c2ccc(C#N)nc12 (stereo partly drawn) [Example 290, 4-((2S,5R)-2,5-diethyl-4-(1-(4-(((R)-3-hydroxypiperidin-1-yl)methyl)phenyl)ethyl)piperazin-1-yl)-1-methyl-2-oxo-1,2-dihydropyrido[3,2-d]pyrimidine-6-carbonitrile]
Whole blood (pERK)
  IC50: 20000 nM
Human DGKζ
  IC50: 57200 nM
Human DGKα
  IC50: 1950 nM
